# Results taken from patent US5066652A, “Thiomethyl and sulfinylmethyl derivatives having gastric acid antisectetory activity and pharmaceutical compositions containing them” (Chiesi Farmaceutici S.p.A., priority 1988, dated 1991).
# Like-named read-outs stand apart in the source and are kept apart here.
# Experiments:
# [1] = system: secretion of hydrochloric acid in the stomach (Shay ulcers); test: Antisecretory activity - Shay ulcers (pylorus-ligated rat); assay type: in vivo; conditions: for Emax / ED40: Rattus norvegicus; for Emax / ED50 / ED40: 2 h; for Emax: α=1 represents 100% inhibition of gastric acid hypersecretion, read-out: α (approximate value of intrinsic activity); for ED50: rat, pylorus ligation, intraduodenal or intravenous; for PR (potency ratio in comparison with Omeprazole): ratio of mean ED50 on the 3 parameters of test compound to mean ED50 of omeprazole; for ED40: footnote 1: ED40 value
# Procedure: Antisecretory activity--Shay ulcers The gastric secretory inhibitory activity of the compounds of general formula (I) was determined in case of hypersecretion induced in the rat by ligation of gastroduodenal junction according to the procedure described by Shay (Shay H. et al, Gasgroenterology 5, 43-61, 1945). […] Thereafter, they were fasted for 24 hours, with water ad libitum, which period was sufficient to assure a good gastric emptying, then laparectomized under light ether anesthesia, so as to allow to effect a pylorus ligation as closer as possible to the gastroduodenal junction. Two hours after the ligation, the animals were killed by means of an ether excess and stomaches were removed. Gastric contents were recovered, after filtration through a gauze, and placed in graduated test-tubes and centrifuged at 3000×g for 15 minutes. The following parameters were evaluated on the surnatant: volume (ml); pH; free acidity by conversion of pH into H^+ μEq by means of Moore table (Ann. New York Acad. Sci. 1967, 866-874); titrable acidity, by titration of an amount with 0.02N NaOH, using phenolphtalein as the indicator. […] The results were expressed as percent inhibition of hypersecretion induced by pylorus ligation in the control rats. The obtained results are reported in table 3 as: ED50 (μmol/kg) calculated on the basis of the equation of the linear tract of does-effect curves obtained with the test compounds on volume, free and titrable acidities; […]
# [2] = system: secretion of hydrochloric acid in the stomach; test: Lumen-perfused rat stomach in situ (histamine-induced hypersecretion); assay type: in vivo; conditions: for ED50: histamine 35 mcg/kg/min, 3 hours
# Procedure: Lumen-perfused rat stomach in situ The experiments were done according to Ghosh M. N. and Schild H. O. (Br. J. Pharmacol. 13, 54-61, 1958). […] After a midline abdominal incision, a PVC tube was inserted into the stomach via the esophagus and the stomach was perfused with saline (37° C.) at a rate of 1 ml/min. A second tube draining the pylorus was inserted through the abdominal wall for collection of gastric secretion. […] After equilibration of basal secretion an hypersecretion was induced by infusion of histamine 35 mcg/kg/min, through the femoral vein. […] Mean gastric output was determined for a 3 hours test period following drug administration. The last 30 minutes interval prior to dosing was used as a control. The dose-response relationship was established using the maximum inhibition obtained at each individual dose.
# [3] = free acid output, read-out: ED50 free acid output
# [4] = secretion volume, read-out: ED50 volume
# [5] = titratable acid output, read-out: ED50 titratable acid output
smiles,measurement,setting,value
"CN/C(=N/CCSCc1nc[nH]c1C)NC#N [Cimetidine, reference compound]",Emax,[1],100%
same,ED50,[1]; [3],24.1 µmol/kg
same,ED50,[1]; [4],47.3 µmol/kg
same,ED50,[1]; [5],23.9 µmol/kg
same,PR (potency ratio in comparison with Omeprazole),[1],"11,5"
same,ED50,"[2]; intraduodenal, read-out: ED50 free acid output",11.8 µmol/kg
same,ED50,"[2]; intraduodenal, read-out: ED50 titratable acid output",11.1 µmol/kg
same,α (intrinsic activity),"[2]; histamine, intraduodenal",1
same,PR = potency ratio,[2]; in comparison with omeprazole,5.1
"Cn1ccnc1SCc1nc2ccccc2[nH]1 [IX, 1-methyl-2-(2'-benzimidazolylmethylthio)imidazole.2HCl]",Emax,[1],40 to 60%
same,ED50,[1]; [3],53.2 µmol/kg
same,ED50,[1]; [4],65 µmol/kg
same,ED50,[1]; [5],24.7 µmol/kg
same,PR (potency ratio in comparison with Omeprazole),[1],"17,2"
"CN(C)c1ccccc1CSc1nc2cnccc2[nH]1 [L, 2-[2'-(N,N-dimethylanilyl)methylthio]imidazo-[4,5-c]-pyridine]",Emax,[1],100%
same,ED50,[1]; [3],5.5 µmol/kg
same,ED50,[1]; [4],19.7 µmol/kg
same,ED50,[1]; [5],6.9 µmol/kg
same,PR (potency ratio in comparison with Omeprazole),[1],"3,8"
"CN(C)c1ccccc1CSc1nc2cscc2[nH]1 [LII, 2-[2'-(N,N-dimethylanilyl)methylthio)thieno-[3,4-d]-imidazole]",Emax,[1],50 to 80%
same,ED50,[1]; [3],45 µmol/kg
same,ED50,[1]; [4],90 µmol/kg
same,ED50,[1]; [5],28 µmol/kg
same,PR (potency ratio in comparison with Omeprazole),[1],"19,6"
"COc1c(C)cnc(CSc2nccn2C)c1C [VIII, 1-methyl-2-[2'-(3' ,5 '-dimethyl-4'-methoxypyridyl)methylthio]imidazole.2HCl]",ED40,"[1]; free acid output, read-out: ED40 free acid output",0.03 µmol/kg
same,ED40,"[1]; secretion volume, read-out: ED40 volume",0.12 µmol/kg
same,ED40,"[1]; titratable acid output, read-out: ED40 titratable acid output",0.03 µmol/kg
same,Emax,[1],40 to 60%
same,PR (potency ratio in comparison with Omeprazole),[1],"0,02"
"Cn1ccnc1SCc1ccc2ccccc2n1 [XII, 1-methyl-2-(2'-quinolylmethylthio)imidazole.2HCl]",Emax,[1],100%
same,ED50,[1]; [3],34.7 µmol/kg
same,ED50,[1]; [4],43.5 µmol/kg
same,ED50,[1]; [5],38.1 µmol/kg
same,PR (potency ratio in comparison with Omeprazole),[1],"14,0"
"COc1c(C)cnc(C[S+]([O-])c2nccn2C)c1C (centres unmarked) [XIV, 1-methyl-2-[2'-(3' ,5 '-dimethyl-4'-methoxy)pyridylmethylsulfinyl]imidazole]",Emax,[1],60%
same,ED50,[1]; [3],17.1 µmol/kg
same,ED50,[1]; [4],26.7 µmol/kg
same,ED50,[1]; [5],19.2 µmol/kg
same,PR (potency ratio in comparison with Omeprazole),[1],"7,6"
"CN(C)c1ccccc1C[S+]([O-])c1nccn1-c1ccccc1F (centres unmarked) [XLI, 1-(2'-fluorophenyl)-2-[2'-(N,N-dimethylanilyl)methylsulfinyl]imidazole]",Emax,[1],100%
same,ED50,[1]; [3],42.3 µmol/kg
same,ED50,[1]; [4],124 µmol/kg
same,ED50,[1]; [5],61.9 µmol/kg
same,PR (potency ratio in comparison with Omeprazole),[1],"27,6"
"CN(C)c1ccccc1CSc1nc2cncnc2[nH]1 [XLV, 8-[2'-(N,N-dimethylanilyl)methylthio]purine]",Emax,[1],100%
same,ED50,[1]; [3],17.8 µmol/kg
same,ED50,[1]; [4],31.2 µmol/kg
same,ED50,[1]; [5],19.3 µmol/kg
same,PR (potency ratio in comparison with Omeprazole),[1],"8,2"
"COc1ccc(C)nc1C[S+]([O-])c1ncnc2[nH]cnc12 (centres unmarked) [XLVI, 6-[2'-(6'-methyl-3'-methoxypyridyl)methylsulfinyl]purine]",Emax,[1],100%
same,ED50,[1]; [3],33.1 µmol/kg
same,ED50,[1]; [4],52 µmol/kg
same,ED50,[1]; [5],45.8 µmol/kg
same,PR (potency ratio in comparison with Omeprazole),[1],"15,8"
"c1ccc(N2CCOCC2)c(CSc2nc3cccnc3[nH]2)c1 [XLVII, 2-(2'-[1'-(4-morpholinyl)phenyl]methylthio)imidazo-[4,5-b]-pyridine]",Emax,[1],70 to 90%
same,ED50,[1]; [3],42.3 µmol/kg
same,ED50,[1]; [4],130 µmol/kg
same,ED50,[1]; [5],61.9 µmol/kg
same,PR (potency ratio in comparison with Omeprazole),[1],"28,2"
"c1ccc2[nH]c(CSc3nc4cccnc4[nH]3)nc2c1 [XLVIII, 2-(2'-benzimidazolylmethylthio)imidazo-[4,5-b]-pyridine]",Emax,[1],50 to 60%
same,ED50,[1]; [3],164 µmol/kg
same,ED50,[1]; [4],522 µmol/kg
same,ED50,[1]; [5],235 µmol/kg
same,PR (potency ratio in comparison with Omeprazole),[1],"110,9"
"Cn1ccnc1[S+]([O-])Cc1nc2cc(C(=O)c3ccccc3)ccc2[nH]1 (centres unmarked) [XV, 1-methyl-2-[2'-(5'-benzoyl)benzimidazolylmethylsulfinyl]imidazole]",Emax,[1],50 to 60%
same,ED50,[1]; [3],0.6 µmol/kg
same,ED50,[1]; [4],3 µmol/kg
same,ED50,[1]; [5],0.7 µmol/kg
same,PR (potency ratio in comparison with Omeprazole),[1],"0,5"
"COc1ccnc(C[S+]([O-])c2nccn2C)c1 (centres unmarked) [XVI, 1-methyl-2-[2'-(4'-methoxypyridyl)methylsulfinyl]imidazole]",Emax,[1],40 to 60%
same,ED50,[1]; [3],0.3 µmol/kg
same,ED50,[1]; [4],2.3 µmol/kg
same,ED50,[1]; [5],0.3 µmol/kg
same,PR (potency ratio in comparison with Omeprazole),[1],"0,3"
"Cn1ccnc1[S+]([O-])Cc1nc2ccccc2[nH]1 (centres unmarked) [XVII, 1-methyl-2-[2'-benzimidazolylmethylsulfinyl)imidazole]",Emax,[1],70 to 90%
same,ED50,[1]; [3],84.4 µmol/kg
same,ED50,[1]; [4],134 µmol/kg
same,ED50,[1]; [5],109 µmol/kg
same,PR (potency ratio in comparison with Omeprazole),[1],"39,7"
"Cn1ccnc1[S+]([O-])Cc1ccc2ccccc2n1 (centres unmarked) [XVIII, 1-methyl-2-(2'-quinolylmethylsulfinyl)imidazole]",Emax,[1],100%
same,ED50,[1]; [3],36.9 µmol/kg
same,ED50,[1]; [4],40.3 µmol/kg
same,ED50,[1]; [5],39.4 µmol/kg
same,PR (potency ratio in comparison with Omeprazole),[1],"14,0"
"COc1ccnc(CSc2nccn2-c2ccccc2)c1C [XXIII, 1-phenyl-2-[2'-(3'-methyl-4'-methoxypyridyl)methylthio]imidazole]",Emax,[1],70%
same,ED50,[1]; [3],125 µmol/kg
same,ED50,[1]; [4],125 µmol/kg
same,ED50,[1]; [5],110 µmol/kg
same,PR (potency ratio in comparison with Omeprazole),[1],"43,4"
"CN(C)c1ccccc1CSc1nccn1-c1ccccc1Cl [XXXI, 1-(2'-clorophenyl)-2-[2'-(N,N-dimethylanilyl)methylthio]imidazole]",Emax,[1],90%
same,ED50,[1]; [3],30.1 µmol/kg
same,ED50,[1]; [4],67.2 µmol/kg
same,ED50,[1]; [5],55.1 µmol/kg
same,PR (potency ratio in comparison with Omeprazole),[1],"18,4"
"CN(C)c1ccccc1CSc1nccn1-c1ccccc1F [XXXII, 1-(2'-fluorophenyl)-2-[2'-(N,N-dimethylanilyl)methylthio]imidazole]",Emax,[1],100%
same,ED50,[1]; [3],25.5 µmol/kg
same,ED50,[1]; [4],34.2 µmol/kg
same,ED50,[1]; [5],23.9 µmol/kg
same,PR (potency ratio in comparison with Omeprazole),[1],"10,1"
"COc1ccccc1-n1ccnc1SCc1ccccc1N(C)C [XXXIII, 1-(2'-methoxyphenyl)-2-[2'-(N,N-dimethylanilyl)methylthio]imidazole]",Emax,[1],70 to 80%
same,ED50,[1]; [3],1.2 µmol/kg
same,ED50,[1]; [4],3 µmol/kg
same,ED50,[1]; [5],2 µmol/kg
same,PR (potency ratio in comparison with Omeprazole),[1],"0,75"
"CN(C)c1ccccc1CSc1nccn1-c1ccc(Cl)cc1 [XXXIV, 1-(4'-chlorophenyl)-2-[2'-(N,N-dimethylanilyl)methylthio]imidazole. 2HCl]",Emax,[1],100%
same,ED50,[1]; [3],6.1 µmol/kg
same,ED50,[1]; [4],24.6 µmol/kg
same,ED50,[1]; [5],1.3 µmol/kg
same,PR (potency ratio in comparison with Omeprazole),[1],"3,9"
"[O-][S+](Cc1nc2ccccc2[nH]1)c1nccn1-c1ccc(F)cc1 (centres unmarked) [XXXIX, 1-(4'-fluorophenyl)-2-[2'-(benzimidazolyl)methylsulfinyl]-imidazole]",Emax,[1],80%
same,ED50,[1]; [3],139 µmol/kg
same,ED50,[1]; [4],300 µmol/kg
same,ED50,[1]; [5],165 µmol/kg
same,PR (potency ratio in comparison with Omeprazole),[1],"72,8"
"CN(C)c1ccccc1CSc1nccn1-c1ccccc1C(F)(F)F [XXXV, 1-(2'-trifluoromethylphenyl)-2-[2'-(N,N-dimethylanilyl)methylthio]imidazole. 2HCl]",Emax,[1],100%
same,ED50,[1]; [3],8.3 µmol/kg
same,ED50,[1]; [4],24.9 µmol/kg
same,ED50,[1]; [5],5 µmol/kg
same,PR (potency ratio in comparison with Omeprazole),[1],"4,6"
"c1ccc(-n2ccnc2SCc2ccc3ccccc3n2)cc1 [XXXVI, 1-phenyl-2-[2'-(quinolyl)methylthio]imidazole]",Emax,[1],60 to 70%
same,ED50,[1]; [3],50 µmol/kg
same,ED50,[1]; [4],120 µmol/kg
same,ED50,[1]; [5],80 µmol/kg
same,PR (potency ratio in comparison with Omeprazole),[1],"30,1"
"COc1ccnc(C[S+]([O-])c2nccn2-c2cccc(F)c2)c1C (centres unmarked) [XXXVII, 1-(3'-fluorophenyl)-2-[2'-(3'-methyl-4'-methoxypyridyl)methylsulphinyl]imidazole]",Emax,[1],60 to 80%
same,ED50,[1]; [3],73 µmol/kg
same,ED50,[1]; [4],80 µmol/kg
same,ED50,[1]; [5],80 µmol/kg
same,PR (potency ratio in comparison with Omeprazole),[1],"28,1"
CN(C)c1ccccc1CSc1nccn1-c1ccc(F)cc1 [XXX],Emax,[1],100%
same,ED50,[1]; [3],9.2 µmol/kg
same,ED50,[1]; [4],21.1 µmol/kg
same,ED50,[1]; [5],11.2 µmol/kg
same,PR (potency ratio in comparison with Omeprazole),[1],"5,0"
